The source of these data is PubChem BioAssay AID248 (DTP/NCI, 2004).

The assay relates to L1210 leukemia ip in BDF1 mice, survival T/C. In words: NCI In Vivo Anticancer Drug Screen. Data for tumor model L1210 Leukemia (intraperitoneal) in B6D2F1 (BDF1) mice. The settings on record: endpoint: mean survival time, higher = longer survival. In a few lines:
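Value reflects the ratio of survival in compound-treated mice to survival in vehicle-treated controls, with both groups carrying the same transplanted tumor.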

Setting [1] is: dose: 100.0 mg/kg/injection, schedule: Q04DX002 (ip), vehicle: Klucel (hydroxypropylcellulose) (HPC).
Where [2] appears, read: dose: 200.0 mg/kg/injection, schedule: Q04DX002 (ip), vehicle: Klucel (hydroxypropylcellulose) (HPC).
Setting [3] is: dose: 400.0 mg/kg/injection, schedule: Q04DX002 (ip), vehicle: Klucel (hydroxypropylcellulose) (HPC).
Where [4] appears, read: dose: 50.0 mg/kg/injection, schedule: Q01DX009 (ip), vehicle: saline with Tween-80.
[5] abbreviates: dose: 100.0 mg/kg/injection, schedule: Q04DX003 (ip), vehicle: Klucel (hydroxypropylcellulose) (HPC).
The mark [6] stands for this setting: dose: 200.0 mg/kg/injection, schedule: Q04DX003 (ip), vehicle: Klucel (hydroxypropylcellulose) (HPC).
Setting [7] is: dose: 400.0 mg/kg/injection, schedule: Q04DX003 (ip), vehicle: Klucel (hydroxypropylcellulose) (HPC).
[8] abbreviates: dose: 100.0 mg/kg/injection, schedule: Q01DX009 (ip), vehicle: Klucel (hydroxypropylcellulose) (HPC).
Setting [9] is: dose: 200.0 mg/kg/injection, schedule: Q01DX009 (ip), vehicle: Klucel (hydroxypropylcellulose) (HPC).
[10] abbreviates: dose: 400.0 mg/kg/injection, schedule: Q01DX009 (ip), vehicle: Klucel (hydroxypropylcellulose) (HPC).
Where [11] appears, read: dose: 100.0 mg/kg/injection, schedule: Q01DX001 (ip), vehicle: saline.
[12] abbreviates: dose: 200.0 mg/kg/injection, schedule: Q01DX001 (ip), vehicle: saline.
[13] abbreviates: dose: 400.0 mg/kg/injection, schedule: Q01DX001 (ip), vehicle: saline.
The mark [14] stands for this setting: dose: 100.0 mg/kg/injection, schedule: Q01DX009 (ip), vehicle: saline with Tween-80.
Where [15] appears, read: dose: 100.0 mg/kg/injection, schedule: Q04DX003 (ip), vehicle: saline with Tween-80.
Setting [16] is: dose: 200.0 mg/kg/injection, schedule: Q01DX009 (ip), vehicle: saline with Tween-80.
Where [17] appears, read: dose: 200.0 mg/kg/injection, schedule: Q04DX003 (ip), vehicle: saline with Tween-80.

Structures are written as SMILES. Several values for one entry are separate records, joined by “and”; a condition that tells them apart may be missing. Equal values may be shown once. Inconclusive results and toxic doses are left out.

Turning to `Nc1nc(=S)c2ncn(C3OC(COC(=O)c4ccc(Cl)cc4)C(OC(=O)c4ccc(Cl)cc4)C3OC(=O)c3ccc(Cl)cc3)c2[nH]1` (configuration not stated), the T/C reads like this: (dose: 3.5 mg/kg/injection, schedule: Q01DX Z (ip), vehicle: carboxymethylcellulose (CMC)) 113 % of control; (dose: 12.0 mg/kg/injection, schedule: Q01DX Z (ip), vehicle: carboxymethylcellulose (CMC)) 156 % of control; (dose: 12.0 mg/kg/injection, schedule: Q01DX Z (ip), vehicle: saline) 170 % of control; (dose: 19.0 mg/kg/injection, schedule: Q01DX Z (ip), vehicle: carboxymethylcellulose (CMC)) 115 % of control; (dose: 44.0 mg/kg/injection, schedule: Q01DX Z (ip), vehicle: carboxymethylcellulose (CMC)) 150 % of control; (dose: 50.0 mg/kg/injection, schedule: Q01DX Z (ip), vehicle: saline) 114 % of control. Also, the T/C (dose: 150.0 mg/kg/injection, schedule: Q01DX Z (ip), vehicle: carboxymethylcellulose (CMC)) is 108 % of control.

For the compound `Cc1nc(-c2ccccc2)no1`, the T/C reads like this: (dose: 75.0 mg/kg/injection, schedule: Q01DX009 (ip), vehicle: Klucel (hydroxypropylcellulose) (HPC)) 102 % of control; under setting [1], 97 % of control; (dose: 150.0 mg/kg/injection, schedule: Q01DX009 (ip), vehicle: Klucel (hydroxypropylcellulose) (HPC)) 98 % of control; under setting [2], 102 % of control; (dose: 300.0 mg/kg/injection, schedule: Q01DX009 (ip), vehicle: Klucel (hydroxypropylcellulose) (HPC)) 101 % of control; under setting [3], 97 % of control.

As to `Nc1nc2nc3c(nc2c(=O)[nH]1)CN(c1ccc(C(=O)O)cc1)C3=O`, the T/C runs as follows: (dose: 12.5 mg/kg/injection, schedule: Q01DX009 (ip), vehicle: saline with Tween-80) 90 % of control; (dose: 25.0 mg/kg/injection, schedule: Q01DX009 (ip), vehicle: saline with Tween-80) 94 % of control; under setting [4], 87 % of control.

For `CCOC(=O)c1cnc2onc(C)c2c1Nc1cccc(C(F)(F)F)c1`, the T/C under setting [5] was 90 % of control, the T/C under setting [6] is 97 % of control and the T/C under setting [7] was 101 % of control.

With `O=C(Nc1ccccn1)NC1CCCCC1`, the T/C under setting [8] was 98 % of control, the T/C under setting [9] is 105 % of control and the T/C under setting [10] is 98 % of control.

For the compound `CCS(=O)(=O)C(S(C)(=O)=O)S(=O)(=O)C(C)C` (configuration not stated), the T/C under setting [5] is 92 % of control, the T/C under setting [6] is 96 % of control and the T/C under setting [7] is 89 % of control.

Consider `Cc1nc(N)c2nc(-c3ccc(N(CCCl)CCCl)cc3)c(N)nc2n1`, for which the T/C is, setting by setting: under setting [11], 96 % of control; under setting [12], 96 % of control; under setting [13], 96 % of control.

Consider `S=P(N1CCCCC1)(N1CCCCC1)N1CCCCC1`, for which the T/C is, setting by setting: under setting [8], 100 % of control; under setting [9], 103 % of control; under setting [10], 100 % of control.

For `COc1cc(-c2ccc(N=Nc3nc4nc(N)nc(O)c4[nH]3)c(OC)c2)ccc1N=Nc1nc2nc(N)nc(O)c2[nH]1`, the T/C by setting is: under setting [5], 97 % of control; under setting [6], 100 % of control; under setting [7], 97 % of control.

For `N#Cc1cn(C2OC(CO)C(O)C2O)c2ncn(O)c(=N)c12` (configuration not stated), the T/C runs as follows: (dose: 0.19 mg/kg/injection, schedule: Q01DX005 (ip), vehicle: saline) 112 % of control; (dose: 0.19 mg/kg/injection, schedule: Q01DX009 (ip), vehicle: saline) 107 % of control; (dose: 0.39 mg/kg/injection, schedule: Q01DX005 (ip), vehicle: saline) 96 % of control; (dose: 0.39 mg/kg/injection, schedule: Q01DX009 (ip), vehicle: saline) 97 % of control; (dose: 0.78 mg/kg/injection, schedule: Q01DX005 (ip), vehicle: saline) 100 % of control; (dose: 0.78 mg/kg/injection, schedule: Q01DX009 (ip), vehicle: saline) 100 % of control. For the same compound, the T/C (dose: 1.56 mg/kg/injection, schedule: Q01DX005 (ip), vehicle: saline) was 94 % of control.

For the compound `CC(=O)N(C)c1ccc(NC(=O)Nc2ccc(C)cc2[N+](=O)[O-])cc1`, the T/C was 94 % of control under setting [5], 94 % of control under setting [6] and 94 % of control under setting [7].

Regarding `O=c1oc2ccc3ccccc3c2cc1-c1nc2ccccc2[nH]1`, the T/C is, setting by setting: under setting [1], 95 % of control; under setting [2], 91 % of control; under setting [3], 110 % of control.

On to `Cc1nc2c(o1)CCCC2`, for which the T/C reads like this: (dose: 25.0 mg/kg/injection, schedule: Q01DX009 (ip), vehicle: carboxymethylcellulose (CMC)) 94 % of control and 107 % of control; (dose: 50.0 mg/kg/injection, schedule: Q01DX009 (ip), vehicle: carboxymethylcellulose (CMC)) 97 % of control and 103 % of control; (dose: 100.0 mg/kg/injection, schedule: Q01DX009 (ip), vehicle: carboxymethylcellulose (CMC)) 94 % of control and 105 % of control; (dose: 100.0 mg/kg/injection, schedule: Q04DX002 (ip), vehicle: carboxymethylcellulose (CMC)) 103 % of control and 113 % of control; (dose: 200.0 mg/kg/injection, schedule: Q04DX002 (ip), vehicle: carboxymethylcellulose (CMC)) 98 % of control and 100 % of control; (dose: 400.0 mg/kg/injection, schedule: Q04DX002 (ip), vehicle: carboxymethylcellulose (CMC)) 88 % of control.

With `CC1(C)OC(=O)CC1CCCC(=O)O` (configuration not stated), the T/C is 104 % of control under setting [1], 96 % of control under setting [2] and 96 % of control under setting [3].

Regarding `Clc1ccc(/C=N\Nc2c3ccccc3nc3ccccc23)cc1Cl`, the T/C is 97 % of control under setting [11], 94 % of control under setting [12] and 111 % of control under setting [13].

Regarding `[O]=[Nb]`, the T/C by setting is: (dose: 2.5 mg/kg/injection, schedule: Q01DX009 (ip), vehicle: saline with Tween-80) 95 % of control; (dose: 5.0 mg/kg/injection, schedule: Q01DX009 (ip), vehicle: saline with Tween-80) 96 % of control; (dose: 10.0 mg/kg/injection, schedule: Q01DX009 (ip), vehicle: saline with Tween-80) 97 % of control.

As for `Cc1cc(C(=O)c2ccccn2)c2cccc(C(F)(F)F)c2n1`, the T/C by setting is: under setting [4], 94 % of control; under setting [14], 102 % of control; under setting [15], 92 % of control; under setting [16], 100 % of control; under setting [17], 88 % of control.

With `CC1CCC(C)C([N+](C)(C)C)C1` (configuration not stated), the T/C was 98 % of control (dose: 12.5 mg/kg/injection, schedule: Q04DX003 (ip), vehicle: saline); 98 % of control (dose: 25.0 mg/kg/injection, schedule: Q04DX003 (ip), vehicle: saline); 95 % of control (dose: 50.0 mg/kg/injection, schedule: Q04DX003 (ip), vehicle: saline); 93 % of control (dose: 75.0 mg/kg/injection, schedule: Q04DX003 (ip), vehicle: saline).

Take `O=S(=O)(CCCc1ccccc1)CCS(=O)(=O)CCCc1ccccc1`: the T/C is, setting by setting: (dose: 50.0 mg/kg/injection, schedule: Q01DX009 (ip), vehicle: acetone) 98 % of control; (dose: 100.0 mg/kg/injection, schedule: Q01DX009 (ip), vehicle: acetone) 98 % of control; (dose: 200.0 mg/kg/injection, schedule: Q01DX009 (ip), vehicle: acetone) 98 % of control.

In the case of `CCOC(=O)NNC(=O)Nc1ccc(Cl)c([N+](=O)[O-])c1`, the T/C is 104 % of control (dose: 100.0 mg/kg/injection, schedule: Q01DX009 (ip), vehicle: saline) and 93 % of control (dose: 200.0 mg/kg/injection, schedule: Q01DX009 (ip), vehicle: saline).

For the compound `[O-][N+](=Nc1cccc(Cl)c1)c1cccc(Cl)c1`, the T/C was 97 % of control under setting [4]; 102 % of control (dose: 50.0 mg/kg/injection, schedule: Q04DX003 (ip), vehicle: saline with Tween-80); 101 % of control under setting [14]; 98 % of control under setting [15]; 97 % of control under setting [16]; 112 % of control under setting [17].
